Reference: patent US9422285B2, “Substituted pyrazolo[1,5-A]-pyridine-3-carboxamides and use thereof” (Bayer Pharma Aktiengesellschaft, priority 2014, dated 2016)

The molecules below were run against T1, recombinant guanylate cyclase reporter cell line (Rattus norvegicus, UniProt P19686+P20595) (assay: Effect on a recombinant guanylate cyclase reporter cell line (B-2)). Settings: in some cases mean values for individual determinations.
T1 construct: expressed in transfected cells
T1 sequence (P19686 1-690): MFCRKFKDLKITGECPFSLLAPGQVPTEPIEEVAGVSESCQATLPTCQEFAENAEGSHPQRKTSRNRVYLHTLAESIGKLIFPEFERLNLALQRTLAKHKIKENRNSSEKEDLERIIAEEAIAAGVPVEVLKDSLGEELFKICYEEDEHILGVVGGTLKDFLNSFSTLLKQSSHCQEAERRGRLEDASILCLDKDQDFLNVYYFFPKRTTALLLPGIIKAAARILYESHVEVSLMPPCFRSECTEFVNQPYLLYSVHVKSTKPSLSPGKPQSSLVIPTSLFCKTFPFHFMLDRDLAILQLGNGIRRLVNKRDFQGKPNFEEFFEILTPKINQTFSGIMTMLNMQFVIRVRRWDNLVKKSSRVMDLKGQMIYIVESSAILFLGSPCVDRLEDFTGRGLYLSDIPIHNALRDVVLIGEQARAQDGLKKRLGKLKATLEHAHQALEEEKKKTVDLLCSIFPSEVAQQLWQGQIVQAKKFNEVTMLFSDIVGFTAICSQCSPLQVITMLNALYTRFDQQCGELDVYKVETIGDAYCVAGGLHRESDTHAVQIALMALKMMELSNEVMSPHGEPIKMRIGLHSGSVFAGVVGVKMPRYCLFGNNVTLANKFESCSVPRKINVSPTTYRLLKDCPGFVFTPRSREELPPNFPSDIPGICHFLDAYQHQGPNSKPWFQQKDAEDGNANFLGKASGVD
T1 sequence (P20595 1-619): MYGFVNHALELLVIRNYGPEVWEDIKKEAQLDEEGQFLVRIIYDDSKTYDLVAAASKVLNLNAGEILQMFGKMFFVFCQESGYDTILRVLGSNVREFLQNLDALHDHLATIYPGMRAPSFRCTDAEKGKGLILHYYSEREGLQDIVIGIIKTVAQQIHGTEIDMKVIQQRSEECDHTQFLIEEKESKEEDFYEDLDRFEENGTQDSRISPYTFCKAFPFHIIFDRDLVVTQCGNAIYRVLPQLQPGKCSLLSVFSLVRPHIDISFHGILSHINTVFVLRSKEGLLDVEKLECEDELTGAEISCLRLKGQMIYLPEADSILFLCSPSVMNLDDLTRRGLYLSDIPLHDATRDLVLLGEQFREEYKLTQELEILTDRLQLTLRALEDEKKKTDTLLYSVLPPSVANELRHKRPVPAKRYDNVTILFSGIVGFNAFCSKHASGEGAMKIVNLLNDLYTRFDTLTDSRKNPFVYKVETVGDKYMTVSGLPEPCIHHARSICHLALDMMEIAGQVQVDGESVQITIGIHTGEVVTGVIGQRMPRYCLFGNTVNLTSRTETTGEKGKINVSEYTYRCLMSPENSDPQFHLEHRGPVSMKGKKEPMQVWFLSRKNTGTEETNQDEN
Type: cell-based
Method: B-2. Effect on a Recombinant Guanylate Cyclase Reporter Cell Line
The cellular effect of the inventive compounds is determined using a recombinant guanylate cyclase reporter cell line, as described in F. Wunder et al., Anal. Biochem. 339, 104-112 (2005).
Representative MEC values (MEC=minimum effective concentration) for the inventive compounds are shown in the table below (in some cases as mean values for individual determinations): […]

Structure (SMILES)	MEC (minimum effective concentration)
CCC(C)(N)CNC(=O)c1c(C)nn2c(OCc3c(F)ccc(F)c3F)cc(C)cc12 (single isomer, unassigned) [Example 3, ent-N-(2-Amino-2-methylbutyl)-2,5-dimethyl-7-[(2,3,6-trifluorobenzyl)oxy]pyrazolo[1,5-a]pyridine-3-carboxamide]	0.3 µM
CCC(N)(CC)CNC(=O)c1c(C)nn2c(OCc3c(F)ccc(F)c3F)cc(C)cc12 [Example 8, N-(2-Amino-2-ethylbutyl)-2,5-dimethyl-7-[(2,3,6-trifluorobenzyl)oxy]pyrazolo[1,5-a]pyridine-3-carboxamide]	0.3 µM
Cc1cc(OCc2c(F)ccc(F)c2F)n2nc(C)c(C(=O)NCc3ccccc3-c3cccnc3)c2c1 [Example 14, 2,5-Dimethyl-N-[2-(pyridin-3-yl)benzyl]-7-[(2,3,6-trifluorobenzyl)oxy]pyrazolo[1,5-a]pyridine-3-carboxamide]	0.3 µM
CCCC(C)(N)CNC(=O)c1c(C)nn2c(OCc3c(F)cccc3F)cc(CC)cc12 (racemic) [Example 172, rac-N-(2-Amino-2-methylpentyl)-7-[(2,6-difluorobenzyl)oxy]-5-ethyl-2-methylpyrazolo[1,5-a]pyridine-3-carboxamide]	0.3 µM
Cc1cc(OCc2c(F)ccc(F)c2F)n2nc(C)c(C(=O)NC(CCC(F)(F)C(F)(F)F)C(C)(C)O)c2c1 (single isomer, unassigned; ent-2) [Example 22, ent-2,5-Dimethyl-N-(6,6,7,7,7-pentafluoro-2-hydroxy-2-methylheptan-3-yl)-7-[(2,3,6-trifluorobenzyl)oxy]pyrazolo[1,5-a]pyridine-3-carboxamide]	0.1 µM
CCCC(C)(N)CNC(=O)c1cnn2c(OCc3c(F)cccc3F)cc(C)cc12 (single isomer, unassigned) [Example 53, ent-N-(2-Amino-2-methylpentyl)-7-[(2,6-difluorobenzyl)oxy]-5-methylpyrazolo[1,5-a]pyridine-3-carboxamide]	3.0 µM
Cc1cc(OCc2c(F)cccc2F)n2nc(C)c(C(=O)NCC(N)c3ccc4ncccc4c3)c2c1 (racemic) [Example 103, rac-N-[2-Amino-2-(quinolin-6-yl)ethyl]-7-[(2,6-difluorobenzyl)oxy]-2,5-dimethylpyrazolo[1,5-a]pyridine-3-carboxamide]	10 µM
Cc1cc(OCc2c(F)ccc(F)c2F)n2nc(C)c(C(=O)NCCC3(O)CCCC3)c2c1 [Example 5, N-[2-(1-Hydroxycyclopentyl)ethyl]-2,5-dimethyl-7-[(2,3,6-trifluorobenzyl)oxy]pyrazolo[1,5-a]pyridine-3-carboxamide]	0.3 µM
Cc1cc(OCc2c(F)ccc(F)c2F)n2nc(C)c(C(=O)NC(C)c3nc(C(F)(F)F)no3)c2c1 (racemic) [Example 19, rac-2,5-Dimethyl-7-[(2,3,6-trifluorobenzyl)oxy]-N-{1-[3-(trifluoromethyl)-1,2,4-oxadiazol-5-yl]ethyl}pyrazolo[1,5-a]pyridine-3-carboxamide]	0.3 µM
Cc1cc(OCc2c(F)cccc2F)n2nc(C)c(C(=O)N[C@@H](CC(=O)OC(C)(C)C)CC(C)C)c2c1 [Example 37, tert-Butyl (3R)-3-[({7-[(2,6-difluorobenzyl)oxy]-2,5-dimethylpyrazolo[1,5-a]pyridin-3-yl}carbonyl)amino]-5-methylhexanoate]	10 µM

The next lines start with the values.

MEC (minimum effective concentration)	Structure (SMILES)
3.0 µM	Cc1cc(OCc2c(F)cccc2F)n2nc(C)c(C(=O)NC3Cc4ccccc4C3N)c2c1 (centres unmarked) [Example 70, N-(1-Amino-2,3-dihydro-1H-inden-2-yl)-7-[(2,6-difluorobenzyl)oxy]-2,5-dimethylpyrazolo[1,5-a]pyridine-3-carboxamide]
3.0 µM	Cc1cc(OCc2c(F)cccc2F)n2nc(C)c(C(=O)NC34CCC(C(=O)O)(CC3)CC4)c2c1 [Example 153, 4-[({7-[(2,6-Difluorobenzyl)oxy]-2,5-dimethylpyrazolo[1,5-a]pyridin-3-yl}carbonyl)amino]bicyclo[2.2.2]octane-1-carboxylic Acid]
0.1 µM	Cc1cc(OCc2c(F)cccc2F)n2nc(C)c(C(=O)NC3CCCc4ccccc43)c2c1 (racemic) [Example 138, rac-7-[(2,6-Difluorobenzyl)oxy]-2,5-dimethyl-N-(1,2,3,4-tetrahydronaphthalen-1-yl)pyrazolo[1,5-a]pyridine-3-carboxamide]
3.0 µM	Cc1cc(OCc2c(F)cccc2F)n2nc(C)c(C(=O)NC3CCC(N)C3)c2c1 (racemic) [Example 130, rac-N-(3-Aminocyclopentyl)-7-[(2,6-difluorobenzyl)oxy]-2,5-dimethylpyrazolo[1,5-a]pyridine-3-carboxamide]
0.3 µM	Cc1cc(OCc2c(F)cccc2F)n2nc(C)c(C(=O)NC3CCCCNC3)c2c1 (racemic) [Example 127, rac-N-(Azepan-3-yl)-7-[(2,6-difluorobenzyl)oxy]-2,5-dimethylpyrazolo[1,5-a]pyridine-3-carboxamide]
10 µM	Cc1cc(OCc2c(F)cccc2F)n2nc(C)c(C(=O)NCCS(N)(=O)=O)c2c1 [Example 61, 7-[(2,6-Difluorobenzyl)oxy]-2,5-dimethyl-N-(2-sulphamoylethyl)pyrazolo[1,5-a]pyridine-3-carboxamide]
0.3 µM	Cc1cc(OCc2c(F)cccc2F)n2nc(C)c(C(=O)N[C@H]3c4ccccc4C[C@H]3CO)c2c1 (relative stereo) [Example 143, rel-7-[(2,6-Difluorobenzyl)oxy]-N-[(1R,2R)-2-(hydroxymethyl)-2,3-dihydro-1H-inden-1-yl]-2,5-dimethylpyrazolo[1,5-a]pyridine-3-carboxamide]
3.0 µM	Cc1cc(OCc2c(F)cccc2F)n2nc(C)c(C(=O)NNC(=O)CN(C)C)c2c1 [Example 67, 7-[(2,6-Difluorobenzyl)oxy]-N′-[(dimethylamino)acetyl]-2,5-dimethylpyrazolo[1,5-a]pyridine-3-carbohydrazide]
0.1 µM	Cc1cc(OCc2c(F)cccc2F)n2nc(C)c(C(=O)NC3(c4ccc(F)c(F)c4)CC3)c2c1 [Example 90, 7-[(2,6-Difluorobenzyl)oxy]-N[1-(3,4-difluorophenyl)cyclopropyl]-2,5-dimethylpyrazolo[1,5-a]pyridine-3-carboxamide]
1.0 µM	Cc1cc(OCc2c(F)cccc2F)n2nc(C)c(C(=O)NC3CCOc4c(C)cc(F)cc43)c2c1 (racemic) [Example 148, rac-7-[(2,6-Difluorobenzyl)oxy]-N-(6-fluoro-8-methyl-3,4-dihydro-2H-chromen-4-yl)-2,5-dimethylpyrazolo[1,5-a]pyridine-3-carboxamide]
3.0 µM	Cc1cc(OCc2c(F)cccc2F)n2nc(C)c(C(=O)NN3CCOCC3)c2c1 [Example 135, 7-[(2,6-Difluorobenzyl)oxy]-2,5-dimethyl-N-(morpholin-4-yl)pyrazolo[1,5-a]pyridine-3-carboxamide]
10 µM	Cc1cc(OCc2c(F)cccc2F)n2nc(C)c(C(=O)NCC(N)c3cnn(C)c3)c2c1 (racemic) [Example 136, rac-N-[2-Amino-2-(1-methyl-1H-pyrazol-4-yl)ethyl]-7-[(2,6-difluorobenzyl)oxy]-2,5-dimethylpyrazolo[1,5-a]pyridine-3-carboxamide]
1.0 µM	Cc1cc(OCc2c(F)ccc(F)c2F)n2nc(C)c(C(=O)NC3CC(C)(C)NC(C)(C)C3)c2c1 [Example 9, 2,5-Dimethyl-N-(2,2,6,6-tetramethylpiperidin-4-yl)-7-[(2,3,6-trifluorobenzyl)oxy]pyrazolo[1,5-a]pyridine-3-carboxamide]
